Data set [1] has as its target T1, TRPM8 (Rattus norvegicus, UniProt Q8R455).
T1 construct: 6x histidine tag (N); made in house; host or cells: E. coli
Briefly: Ensemble TRPM8 currents in droplet lipid bilayer with solution perfusion (drug potency). It is filed as biochemical. The settings on record: +100 mV.
Experimental: (§1) The apparatus was prepared for use by filling the outer wells and lower channel with 200 μL of an aqueous solution containing liposomes (described below) (FIG. 1B). The 200 μm aperture in the hydrophobic Delrin film is sufficiently small to prevent flow of aqueous solution through it. 80 μL of n-decane was then added to the center well, contacting the lower aqueous solution through the Delrin aperture (FIG. 1B). […] The lower aqueous solution could be exchanged by adding and withdrawing fluids through the outer wells (FIG. 1B).
2 μL of this solution was used for the sessile droplet and 200 μL of this solution (or a similarly prepared liposome solution not containing TRPM8) was added to the lower aqueous channel.
A Ag/AgCl counter electrode placed in the one of the outer wells and the Ag/AgCl pin electrode were connected to an Axopatch 200B amplifier (Axon Instruments), which was used to apply a transmembrane potential and measure the resultant ionic current (FIG. 1B). […] Bilayer capacitance was measured throughout to ensure that changes in measured current were due to changes in channel conductance and not changes in bilayer size or stability. […]
The resultant current at each concentration was measured over 10 minutes before the concentration was increased (FIG. 7). […]
The average current at each concentration was determined and normalized by the maximum value measured. […]

The nature of data set [2]: Control: DPhPC droplet bilayers made without hERG membrane preparations. The settings on record: identical amounts of drug added.
Data set [3] has as its target T1, TRPM8. Briefly: Single-channel TRPM8 recordings in droplet lipid bilayer (open probability). It is filed as biochemical. The settings on record: 20° C., +100 mV, 2.5 μM PI(4,5)P2, n=9.
Experimental: as §1
A TRPM8 construct with 6× histidine tag at the amino terminus was transformed into E. coli, expressed, and purified. […] The resulting proteoliposomes were aliquoted and stored at −80° C. […]
A Ag/AgCl counter electrode placed in the one of the outer wells and the Ag/AgCl pin electrode were connected to an Axopatch 200B amplifier (Axon Instruments), which was used to apply a transmembrane potential and measure the resultant ionic current (FIG. 1B). […] Bilayer capacitance was measured throughout to ensure that changes in measured current were due to changes in channel conductance and not changes in bilayer size or stability.
Temperature was measured using a 10 kΩ n-type thermistor (Newark) placed in the solution of one of the outer wells. […]
Ensembles of TRPM8 were measured using a 1:1000 protein:lipid ratio.
Data set [4] concerns the target T1, TRPM8. As to the kind of experiment: Ensemble TRPM8 currents while varying PI(4,5)P2 concentration. In kind it is biochemical. The conditions noted are these: 250 μM menthol, +100 mV, 20° C. Here is the method:
Data were filtered at 200 Hz. Measurements began in the absence of PI(4,5)P2. After ten minutes at each concentration, the concentration of PI(4,5)P2 was then increased by 0.8 μM with the addition of […] PI(4,5)P2 stock solution (100 μM) to the 200 μL lower aqueous solution. With no PI(4,5)P2 in the measurement solution, there was no observed channel activity. As the concentration of PI(4,5)P2 increased, frequency of channel opening increased. […] Throughout experiments, temperature was kept constant at 20° C.
During measurement, solutions were added to the fluid inlet well and withdrawn from the fluid outlet well (FIG. 6D).
Bilayers were formed with this chip at very high yield and with highly consistent diameters (163±14 μm (n=55), measured capacitively).^17 Following bilayer formation, a potential of 0 mV was applied followed by voltage steps from −100 mV to +100 mV, in 20 mV increments for 10 seconds each, and the resulting current measured. We measured no TRPM8 currents in the absence of the signaling phospholipid PI(4,5)P2, in agreement with previous work (B. Liu and F. Qin, J. Neurosci., 2005, 25, 1674-1681; T. Rohács, C. M. B. Lopes, I. Michailidis and D. E. Logothetis, Nat. Neurosci., 2005, 8, 626-634). […] With PI(4,5)P2, constant TRPM8 currents were almost always observed immediately upon bilayer formation.

4 compounds from patent publication US9150598B2, “Masking apertures enabling automation and solution exchange in sessile bilayers” (The Regents of the University of California, priority 2011, dated 2015) can be followed below.

T1 sequence (Q8R455 whole entry): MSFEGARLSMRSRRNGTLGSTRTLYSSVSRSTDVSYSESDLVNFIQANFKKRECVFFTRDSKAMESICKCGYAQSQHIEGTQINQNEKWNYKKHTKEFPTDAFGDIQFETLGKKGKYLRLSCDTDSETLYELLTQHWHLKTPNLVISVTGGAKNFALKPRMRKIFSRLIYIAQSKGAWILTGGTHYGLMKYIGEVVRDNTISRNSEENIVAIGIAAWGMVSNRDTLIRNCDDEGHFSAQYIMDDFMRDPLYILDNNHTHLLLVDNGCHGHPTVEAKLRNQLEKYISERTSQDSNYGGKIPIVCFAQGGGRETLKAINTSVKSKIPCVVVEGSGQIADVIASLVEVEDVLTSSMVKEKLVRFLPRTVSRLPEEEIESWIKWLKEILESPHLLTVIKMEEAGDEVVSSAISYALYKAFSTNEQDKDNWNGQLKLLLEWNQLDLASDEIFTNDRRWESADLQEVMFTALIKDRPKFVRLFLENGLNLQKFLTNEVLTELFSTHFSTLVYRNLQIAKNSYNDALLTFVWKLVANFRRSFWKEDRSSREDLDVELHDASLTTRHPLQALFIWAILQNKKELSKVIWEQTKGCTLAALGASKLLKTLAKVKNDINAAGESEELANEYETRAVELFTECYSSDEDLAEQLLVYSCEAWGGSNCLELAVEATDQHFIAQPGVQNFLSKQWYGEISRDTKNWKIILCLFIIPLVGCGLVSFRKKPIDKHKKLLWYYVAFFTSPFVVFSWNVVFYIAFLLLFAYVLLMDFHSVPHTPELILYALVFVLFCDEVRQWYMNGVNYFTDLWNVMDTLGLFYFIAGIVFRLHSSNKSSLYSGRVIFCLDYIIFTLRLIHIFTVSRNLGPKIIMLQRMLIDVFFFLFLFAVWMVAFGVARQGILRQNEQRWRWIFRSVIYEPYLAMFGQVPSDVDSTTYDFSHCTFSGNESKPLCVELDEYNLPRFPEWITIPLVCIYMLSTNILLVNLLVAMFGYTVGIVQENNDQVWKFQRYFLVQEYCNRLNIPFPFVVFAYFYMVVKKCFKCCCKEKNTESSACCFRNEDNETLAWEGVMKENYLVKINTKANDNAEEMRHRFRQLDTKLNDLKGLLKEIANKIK

On to `NCCOB(c1ccccc1)c1ccccc1` [2-APB, 2-aminoethoxydiphenyl borate], for which the IC50 in data set [1] (read-out: IC50 of 2-APB on menthol-evoked TRPM8 currents, in 500 μM menthol, protein:lipid 1:1000, n=3) was 4.9 µM.
On to `COc1ccc(CCN2CCC(Nc3nc4ccccc4n3Cc3ccc(F)cc3)CC2)cc1` [astemizole], for which, in data set [2], the “Effect on bilayers without hERG” value is on record as “no change in membrane conductance observed”.
Regarding `CC1CCC(C(C)C)C(O)C1` (stereo not drawn) [menthol], the response in data set [1] (protein:lipid 1:1000, 2.5 μM PI(4,5)P2, n=3) was half-maximal at 112 µM (EC50). The “Popen (open probability) of TRPM8” value in data set [3] (50 μM menthol) worked out at 0.639±0.029; in data set [3] (500 μM menthol), 0.967±0.013.
Consider “phosphatidylinositol-4,5-bisphosphate [PI(4,5)P2]”, for which the “PI(4,5)P2 concentration at which maximum current did not increase further” value in data set [4] was 2.4 µM.

For orientation: IC50 means the midpoint of a concentration-inhibition curve. What is called EC50 is the midpoint of the concentration-response curve. Low values mean an effect from little substance, high ones a need for much substance.
